Data from patent US20250084062A1, “SUBSTITUTED QUINOLINE DERIVATIVE” (ASTELLAS PHARMA INC., priority 2021, published 2025).
Where a name gives a salt, the structure may show the parent alone. Read-outs that look alike come from different tables or passages of the source.

System: acetylcholine receptor clustering in C2Cl2 cells
Test: Induction of acetylcholine receptor clustering in mouse myoblasts C2Cl2 cells (Test Example 1)
Format: cell-based
Conditions: for Emax / EC50: Mus musculus; for Emax: Myoblast, read-out: Max; for EC50: Myotube; for response, % at 30 μM: vs 10 ng/ml Agrin (100%)
Description: Test Example 1: Evaluation of the Induction of Acetylcholine Receptor Clustering in Mouse Myoblasts C2Cl2 Cells
Induction of acetylcholine receptor clustering by the test compound was evaluated by using fluorescently-labeled Bungarotoxin to image and quantify the acetylcholine receptor cluster region induced by the differentiation of myoblasts into myotubes, and measure the change in area. The following test method was optimized with reference to various reports including FEBS let., 586, 3111-3116 (2012). When a concentration response curve is obtained by plotting the logarithmic concentration of the test compound on the horizontal axis and the ratio of the area of acetylcholine receptor cluster region on the vertical axis, the inducing action of the test compound can be determined.
A concentration response curve as an index indicating acetylcholine receptor clustering inducing action of the test compound in mouse C2Cl2 cells was prepared. C2Cl2 cells (ATCC Number: CRL-1772) were seeded at about 5000 cells/well on a 384-well plate (354667; Corning) coated with type I collagen and allowed to incubate at 37 degrees Celsius overnight in DMEM+20% FBS+1% penicillin/streptomycin medium. The following day, the medium was removed and replaced with a differentiation medium containing DMEM+2% FBS+1% penicillin/streptomycin, and allowed to incubate at 37 degrees Celsius for 4 days. The test compound was dissolved in DMSO and added to a differentiation medium containing 0.1 ng/ml Agrin (550-AG-100; R&D systems) such that the final concentration was […] (3-fold serial dilution) or 0.00017 to 3.3 μM (3-fold serial dilution). The final concentration of DMSO was 0.3%. After the 4 days of incubation, the differentiation medium was replaced with a differentiation medium containing the test compound and 0.1 ng/ml Agrin or a differentiation medium containing 0.1 ng/ml Agrin or 10 ng/ml Agrin alone, and allowed to incubate at 37 degrees Celsius overnight. The next day, 10 μl of DMEM containing Bungarotoxin-Alexa488 (B13422; Life technologies) was added to the differentiation medium containing test compound and Agrin and Agrin alone so that the final concentration of Bungarotoxin-Alexa488 was 1 μg/ml, and was allowed to incubate at 37 degrees Celsius for 1 hour to label the acetylcholine receptor. After removing all the medium, 4% PFA was added to each well and allowed to incubate at room temperature for 10 minutes, then washed with PBS, and allowed to incubate at room temperature for 30 minutes in PBS containing 5% goat serum and 0.3% Triton X-100. After removing the PBS solution, PBS-Tween20 (28352; Thermo fisher scientific) containing Anti-Myosin Heavy Chain eFluor (registered trademark) 660 (50-6503-82; eBioscience) and DAPI (340-07971; Dojindo) was added to each well and allowed to incubate at room temperature for 1 hour to label the myotubes and nuclei. After washing three times with PBS-Tween20, the fluorescence was imaged using IN Cell Analyzer 6000 (GE Healthcare). […] The response of control group (1) was regarded as 0% and the response of the control group (2) was regarded as 100%. For quantification, the signal of only the acetylcholine receptor present in the myotube was used to eliminate non-specific fluorescence.
EC50 and Max value were used as indicators of activity in order to quantitatively evaluate the inducing action of the test compound on acetylcholine receptor clustering. EC50 value is a test compound concentration which indicates 50% in terms of the area of acetylcholine receptor cluster region compared to that of 10 ng/ml Agrin (regarded as 100%) in the concentration response curve. EC50 was calculated by nonlinear regression analysis from the concentration response curve using the area of the cluster region of the test compound as an index. Max value is the maximum response value. […]

[1] = maximum response, area of acetylcholine receptor cluster region vs 10 ng/ml Agrin (100%), 0.1 ng/ml Agrin = 0%
[2] = C2Cl2 myotubes, with 0.1 ng/ml Agrin, concentration giving 50% of cluster area of 10 ng/ml Agrin (100%), read-out: EC50

Cc1cc(-c2c(F)cc(S(=O)(=O)N3CCC(F)CC3)cc2F)nc2cc(C(=O)N3CC(N)C3)ccc12 [Example 4, (3-aminoazetidin-1-yl) {2-[2,6-difluoro-4-(4-fluoropiperidine-1-sulfonyl)phenyl]-4-methylquinolin-7-yl}methanone]
Emax [1]: 81%
EC50 [2]: 0.013 µM

Cc1cc(-c2ccc(S(=O)(=O)N3C[C@@H](F)[C@H](F)C3)cc2F)nc2cc(C(=O)O)ccc12 [Example 27]
Emax [1]: 94.6%
EC50 [2]: 0.103 µM

CNCCN(C)C(=O)c1ccc2c(C)cc(-c3c(F)cc(S(=O)(=O)N4CC[C@H](F)C4)cc3F)nc2c1 [Example 59]
Emax [1]: 95.8%
EC50 [2]: 0.049 µM

Cc1cc(-c2c(F)cc(S(=O)(=O)N3CCC(F)CC3)cc2F)nc2cc(C(=O)N3CC4(CNC4)C3)ccc12 [Example 14, (2,6-diazaspiro[3.3]heptan-2-yl) {2-[2,6-difluoro-4-(4-fluoropiperidine-1-sulfonyl)phenyl]-4-methylquinolin-7-yl}methanone]
Emax [1]: 83.5%
EC50 [2]: 0.021 µM

Cc1c(F)c(-c2c(F)cc(S(=O)(=O)N3CC[C@H](F)C3)cc2F)nc2cc(C3CCNCC3)ccc12 [Example 57]
Emax [1]: 87%
EC50 [2]: 0.089 µM

Cc1cc(-c2c(F)cc(S(=O)(=O)N3CC[C@H](F)C3)cc2F)nc2cc(C(=O)N3CC4(CN(C)C4)C3)ccc12 [Example 42]
Emax [1]: 78.1%
EC50 [2]: 0.019 µM

Cc1cc(-c2ccc(S(=O)(=O)N3CC[C@H](F)C3)cc2F)nc2c(F)c(C(=O)O)ccc12 [Example 7, 8-fluoro-2-{2-fluoro-4-[(3S)-3-fluoropyrrolidine-1-sulfonyl]phenyl}-4-methylquinoline-7-carboxylic acid]
Emax [1]: 78.4%
EC50 [2]: 1.85 µM

Cc1cc(-c2c(F)cc(S(=O)(=O)N3CC[C@H](F)C3)cc2F)cc2nc(N3CCNCC3)ccc12 [Example 66]
Emax [1]: 88.4%
EC50 [2]: 0.01 µM

Cc1cc(-c2ccc(S(=O)(=O)N3C[C@@H](O)[C@H](F)C3)cc2F)nc2cc(C(=O)O)ccc12 [Example 49]
Emax [1]: 81.9%
EC50 [2]: 1.09 µM

CNCCNC(=O)c1ccc2c(C)cc(-c3c(F)cc(S(=O)(=O)N4CC[C@H](F)C4)cc3F)nc2c1 [Example 10, 2-{2,6-difluoro-4-[(3S)-3-fluoropyrrolidine-1-sulfonyl]phenyl}-4-methyl-N-[2-(methylamino)ethyl]quinoline-7-carboxamide hydrochloride]
Emax [1]: 96.7%
EC50 [2]: 0.016 µM

Cc1cc(-c2ccc(S(=O)(=O)N3CCC[C@H]3CO)cc2F)nc2cc(C(=O)O)ccc12 [Example 48]
Emax [1]: 74%
EC50 [2]: 3.75 µM

Cc1cc(-c2c(F)cc(S(=O)(=O)N3CC[C@H](F)C3)cc2F)nc2cc(C(=O)N[C@@H](CN)C(=O)O)ccc12 [Example 12, (2S)-3-amino-2-(2-{2,6-difluoro-4-[(3S)-3-fluoropyrrolidine-1-sulfonyl]phenyl}-4-methylquinoline-7-carboxamido) propanoic acid hydrochloride]
Emax [1]: 69.7%
EC50 [2]: 0.268 µM

Cc1cc(-c2ccc(S(=O)(=O)N3CC[C@H](F)C3)cc2CO)nc2cc(C(=O)O)ccc12 [Example 31]
Emax [1]: 48.8%
response, % at 30 μM: 48.8% at 30 μM

Cc1c(F)c(-c2c(F)cc(S(=O)(=O)N3CC[C@H](F)C3)cc2F)nc2cc(CCN)ccc12 [Example 56]
Emax [1]: 97%
EC50 [2]: 0.053 µM

Cc1cc(-c2c(F)cc(S(=O)(=O)N3CC[C@H](F)C3)cc2F)nc2nc(C3=CCNCC3)ccc12 [Example 62]
Emax: 86.4%
EC50: 0.001 µM

COCc1cc(S(=O)(=O)N2CC[C@H](F)C2)ccc1-c1cc(C)c2ccc(C(=O)O)cc2n1 [Example 32]
Emax [1]: 38.8%
response, % at 30 μM: 38.8% at 30 μM

COc1cc(S(=O)(=O)N2CC[C@H](F)C2)cc(F)c1-c1cc(C)c2ccc(C(=O)O)nc2c1 [Example 8, 7-{2-fluoro-4-[(3S)-3-fluoropyrrolidine-1-sulfonyl]-6-methoxyphenyl}-5-methylquinoline-2-carboxylic acid]
Emax [1]: 88.2%
EC50 [2]: 0.045 µM

Cc1cc(S(=O)(=O)N2CC[C@H](F)C2)ccc1-c1nc2cc(C(=O)O)ccc2c(C)c1F [Example 51]
Emax [1]: 77.8%
EC50 [2]: 0.159 µM

Cc1cc(-c2c(F)cc(S(=O)(=O)N3CC[C@H](F)C3)cc2F)nc2nc(C3=CCC(C(=O)O)CC3)ccc12 (some centres unmarked) [Example 36]
Emax [1]: 80.2%
EC50 [2]: 0.392 µM

Cc1cc(-c2c(F)cc(S(=O)(=O)N3CC[C@H](F)C3)cc2F)nc2cc(CC(=O)O)ccc12 [Example 33]
Emax [1]: 86.1%
EC50 [2]: 0.065 µM

Cc1c(F)c(-c2c(F)cc(S(=O)(=O)N3CC[C@H](F)C3)cc2F)nc2cc(C(=O)O)ccc12 [Example 20, 2-{2,6-difluoro-4-[(3S)-3-fluoropyrrolidine-1-sulfonyl]phenyl}-3-fluoro-4-methylquinoline-7-carboxylic acid]
Emax [1]: 86.5%
EC50 [2]: 0.013 µM

Cc1cc(-c2ccc(S(=O)(=O)N3CCC(F)CC3)cc2F)nc2cc(C(=O)O)ccc12 [Example 5, 2-[2-fluoro-4-(4-fluoropiperidine-1-sulfonyl)phenyl]-4-methylquinoline-7-carboxylic acid]
Emax [1]: 86.8%
EC50 [2]: 0.095 µM

Cc1c(F)c(-c2c(F)cc(S(=O)(=O)N3CCCC3)cc2F)nc2cc(C(=O)O)ccc12 [Example 23]
Emax [1]: 85.9%
EC50 [2]: 0.069 µM

Cc1cc(-c2c(F)cc(S(=O)(=O)N3CC[C@H](F)C3)cc2F)nc2nc(OCC(=O)O)ccc12 [Example 6, [(7-{2,6-difluoro-4-[(3S)-3-fluoropyrrolidine-1-sulfonyl]phenyl}-5-methyl-1,8-naphthyridin-2-yl)oxy]acetic acid]
Emax [1]: 76.3%
EC50 [2]: 1.82 µM

Cc1cc(-c2c(F)cc(S(=O)(=O)N3CC[C@H](F)C3)cc2F)nc2nc(C(=O)O)ccc12 [Example 39]
Emax [1]: 78.2%
EC50 [2]: 2.57 µM

Cc1cc(-c2ccc(S(=O)(=O)N3CC[C@H](F)C3)cc2F)nc2cc(C(=O)NCC3(O)CNC3)ccc12 [Example 65]
Emax [1]: 84%
EC50 [2]: 0.053 µM

Cc1c(F)c(-c2c(F)cc(S(=O)(=O)N3CC[C@H](F)C3)cc2F)nc2cc(C(=O)NC(C)(C)CC(=O)O)ccc12 [Example 54]
Emax [1]: 60.8%
EC50 [2]: 1.49 µM

Cc1cc(-c2c(F)cc(S(=O)(=O)N3CC[C@H](F)C3)cc2F)nc2cc(C(=O)NCCN(C)C)ccc12 [Example 43]
Emax [1]: 91.6%
EC50 [2]: 0.021 µM
